Measurements taken from patent US20250186436A1 (4E Therapeutics, Inc., priority 2021, published 2025).
Values joined by “and” are separate entries in the source; they are usually repeats but may differ in a detail not shown here. Equal entries are not always repeated. Where two headings read alike, the source gives them in different places.

Tests used:
[1] = PK study in male Sprague-Dawley rats dosed once per day for five days, PO 1 mg/kg, 0.5% HPMC (Example 6); format: in vivo; conditions: 0.5% HPMC suspension
Method: Example 6: PK study of 4ET-03-053 in male Sprague-Dawley rats dosed once per day for five days (P0; 1 mg/kg; 0.500HPMC aqueous suspension)
Table 18 provides plasma and brain concentrations of 4ET-03-0053 at 24 hr after the last dose of five daily P0 doses.

[2] = PK study in male Sprague-Dawley rats dosed once per day for five days, PO 25 mg/kg, 0.5% HPMC (Example 8); format: in vivo; conditions: 0.5% HPMC suspension
[3] = Sprague-Dawley rats, day 5 of daily PO 1 mg/kg, individual animals, 1 mg/kg
[4] = Sprague-Dawley rats, day 5 of daily PO 1 mg/kg, mean (n = 3)
[5] = male Sprague-Dawley rats, single (first) PO 1 mg/kg dose, individual animals, 1 mg/kg
[6] = male Sprague-Dawley rats, single (first) PO 1 mg/kg dose, mean (n = 3)
[7] = male, Sprague-Dawley, rat, in vivo, po, 1 mg/kg, Sprague-Dawley rats, day 5 of daily PO 1 mg/kg, individual animals
[8] = male, Sprague-Dawley, rat, in vivo, po, 1 mg/kg, Sprague-Dawley rats, day 5 of daily PO 1 mg/kg, mean (n = 3)
[9] = male, Sprague-Dawley, rat, in vivo, po, 1 mg/kg, male Sprague-Dawley rats, single (first) PO 1 mg/kg dose, individual animals
[10] = male, Sprague-Dawley, rat, in vivo, po, 1 mg/kg, male Sprague-Dawley rats, single (first) PO 1 mg/kg dose, mean (n = 3)

## Cc1cc(Nc2cc(N)ncn2)c(=O)n2c1C(=O)NC21CCC2(CC2)CC1 [4ET-03-053, 6″-((6-Aminopyrimidin-4-yl)amino)-8″-methyl-2″H-dispiro[cyclopropane-1,1′-cyclohexane-4′,3″-imidazo[1,5-a]pyridine]-1″,5″-dione]
[1]; [3]
  Clast: 318 ng/mL and 291 ng/mL
  Cmax: 4550 ng/mL and 4500 ng/mL
  Cmax/D: 4150 kg/kL and 4550 kg/kL and 4500 kg/kL
  F: 96.8% and 84.6% and 70.5%
  MRTinf: 7.96 h
  t1/2: 5.90 h and 6.21 h
[1]; [4]
  AUCinf/D: 43213 kg·h/kL
  Cmax/D: 4400 kg/kL
  F: 84.0%
[1]; [5]
  AUCinf: 33302 ng·h/mL and 30451 ng·h/mL
  AUCinf/D: 37178 kg·h/kL and 33302 kg·h/kL and 30451 kg·h/kL
  AUClast: 31340 ng·h/mL and 28992 ng·h/mL
  Clast: 237 ng/mL and 224 ng/mL
  Cmax: 2750 ng/mL
  Cmax/D: 2400 kg/kL and 2750 kg/kL and 2580 kg/kL
  F: 72.2% and 64.7% and 59.2%
  MRTinf: 8.31 h and 7.83 h
  t1/2: 5.77 h and 5.92 h
[1]; [6]
  AUCinf/D: 33644 kg·h/kL
  Cmax/D: 2577 kg/kL
  F: 65.4%
[1]; male Sprague-Dawley rats, single PO 1 mg/kg
  time to peak plasma concentration: ≤ 2 h
[1]; male, Sprague-Dawley, rat, in vivo, po, 1 mg/kg, Sprague-Dawley rats, after five daily PO doses of 1 mg/kg
  bioavailability: 84%
[1]; male, Sprague-Dawley, rat, in vivo, po, 1 mg/kg, Sprague-Dawley rats, after five daily PO doses of 1 mg/kg, at 24 hr, read-out: last measurable concentration
  concentration at 24 h: 278 ng/mL
[1]; male, Sprague-Dawley, rat, in vivo, po, 1 mg/kg, Sprague-Dawley rats, after five daily PO doses of 1 mg/kg, read-out: peak plasma concentration (Cmax)
  Cmax: 4400 ng/mL
[1]; male, Sprague-Dawley, rat, in vivo, po, 1 mg/kg, Sprague-Dawley rats, after five daily PO doses of 1 mg/kg, read-out: terminal half-life (t1/2) (converted)
  half-life: 6.01 h
[1]; male, Sprague-Dawley, rat, in vivo, po, 1 mg/kg, Sprague-Dawley rats, after five daily PO doses of 1 mg/kg, read-out: total systemic exposure (AUCinf)
  AUC(0-inf): 43200 ng·h/mL
[1]; [7]
  AUC(0-t): 47100 ng·h/mL
  MRT inf: 7.89 h
  Tmax: 1 h
[1]; male, Sprague-Dawley, rat, in vivo, po, 1 mg/kg, Sprague-Dawley rats, day 5 of daily PO 1 mg/kg, individual animals, read-out: AUCinf
  AUC(0-inf): 49800 ng·h/mL
[1]; male, Sprague-Dawley, rat, in vivo, po, 1 mg/kg, Sprague-Dawley rats, day 5 of daily PO 1 mg/kg, individual animals, read-out: Clast
  concentration at 24 h: 226 ng/mL
[1]; male, Sprague-Dawley, rat, in vivo, po, 1 mg/kg, Sprague-Dawley rats, day 5 of daily PO 1 mg/kg, individual animals, read-out: Cmax
  Cmax: 4150 ng/mL
[1]; male, Sprague-Dawley, rat, in vivo, po, 1 mg/kg, Sprague-Dawley rats, day 5 of daily PO 1 mg/kg, individual animals, read-out: t1/2 (converted)
  half-life: 5.91 h
[1]; [8]
  AUC(0-t): 40800 ng·h/mL
  MRT inf: 7.8 h
  Tmax: 1.33 h
[1]; male, Sprague-Dawley, rat, in vivo, po, 1 mg/kg, Sprague-Dawley rats, day 5 of daily PO 1 mg/kg, mean (n = 3), read-out: AUCinf
  AUC(0-inf): 43200 ng·h/mL
[1]; male, Sprague-Dawley, rat, in vivo, po, 1 mg/kg, Sprague-Dawley rats, day 5 of daily PO 1 mg/kg, mean (n = 3), read-out: Clast
  concentration at 24 h: 278 ng/mL
[1]; male, Sprague-Dawley, rat, in vivo, po, 1 mg/kg, Sprague-Dawley rats, day 5 of daily PO 1 mg/kg, mean (n = 3), read-out: Cmax
  Cmax: 4400 ng/mL
[1]; male, Sprague-Dawley, rat, in vivo, po, 1 mg/kg, Sprague-Dawley rats, day 5 of daily PO 1 mg/kg, mean (n = 3), read-out: t1/2 (converted)
  half-life: 6.01 h
[1]; [9]
  AUC(0-t): 35100 ng·h/mL
  MRT inf: 8.25 h
  Tmax: 2 h
[1]; male, Sprague-Dawley, rat, in vivo, po, 1 mg/kg, male Sprague-Dawley rats, single (first) PO 1 mg/kg dose, individual animals, read-out: AUCinf
  AUC(0-inf): 37200 ng·h/mL
[1]; male, Sprague-Dawley, rat, in vivo, po, 1 mg/kg, male Sprague-Dawley rats, single (first) PO 1 mg/kg dose, individual animals, read-out: Clast
  concentration at 24 hr: 179 ng/mL
[1]; male, Sprague-Dawley, rat, in vivo, po, 1 mg/kg, male Sprague-Dawley rats, single (first) PO 1 mg/kg dose, individual animals, read-out: Cmax
  Cmax: 2400 ng/mL
[1]; male, Sprague-Dawley, rat, in vivo, po, 1 mg/kg, male Sprague-Dawley rats, single (first) PO 1 mg/kg dose, individual animals, read-out: t1/2 (converted)
  half-life: 5.51 h
[1]; [10]
  AUC(0-t): 31800 ng·h/mL
  MRT inf: 8.13 h
  Tmax: 2 h
[1]; male, Sprague-Dawley, rat, in vivo, po, 1 mg/kg, male Sprague-Dawley rats, single (first) PO 1 mg/kg dose, mean (n = 3), read-out: AUCinf
  AUC(0-inf): 33600 ng·h/mL
[1]; male, Sprague-Dawley, rat, in vivo, po, 1 mg/kg, male Sprague-Dawley rats, single (first) PO 1 mg/kg dose, mean (n = 3), read-out: Clast
  concentration at 24 hr: 213 ng/mL
[1]; male, Sprague-Dawley, rat, in vivo, po, 1 mg/kg, male Sprague-Dawley rats, single (first) PO 1 mg/kg dose, mean (n = 3), read-out: Cmax
  Cmax: 2580 ng/mL
[1]; male, Sprague-Dawley, rat, in vivo, po, 1 mg/kg, male Sprague-Dawley rats, single (first) PO 1 mg/kg dose, mean (n = 3), read-out: t1/2 (converted)
  half-life: 5.73 h
[1]; male, Sprague-Dawley, rat, in vivo, po, 1 mg/kg, male Sprague-Dawley rats, single PO 1 mg/kg
  bioavailability: 65.4%
[1]; male, Sprague-Dawley, rat, in vivo, po, 1 mg/kg, male Sprague-Dawley rats, single PO 1 mg/kg, at 24 hr, read-out: last measurable concentration
  concentration at 24 h: 213 ng/mL
[1]; male, Sprague-Dawley, rat, in vivo, po, 1 mg/kg, male Sprague-Dawley rats, single PO 1 mg/kg, read-out: peak plasma concentration (Cmax)
  Cmax: 2580 ng/mL
[1]; male, Sprague-Dawley, rat, in vivo, po, 1 mg/kg, male Sprague-Dawley rats, single PO 1 mg/kg, read-out: terminal half-life (t1/2) (converted)
  half-life: 5.73 h
[1]; male, Sprague-Dawley, rat, in vivo, po, 1 mg/kg, male Sprague-Dawley rats, single PO 1 mg/kg, read-out: total systemic exposure (AUCinf)
  AUC(0-inf): 33600 ng·h/mL
[2]; male, Sprague-Dawley, rat, in vivo, po, 25 mg/kg, single PO 25 mg/kg dose, individual animals
  half-life: 7.03 h
[2]; male, Sprague-Dawley, rat, in vivo, po, 25 mg/kg, single PO 25 mg/kg dose, mean (n = 3), read-out: Clast
  concentration at 24 h: 2890 ng/mL
[2]; male, Sprague-Dawley, rat, in vivo, po, 25 mg/kg, single PO 25 mg/kg, at 24 hr, read-out: last measurable concentration
  concentration at 24 h: 2890 ng/mL
[2]; single PO 25 mg/kg dose, mean (n = 3)
  F: 26.5%
[2]; single PO 25 mg/kg
  time to peak plasma concentration: ≤ 2 h
